Source: patent publication US20200038399A1, “FORMULATIONS, METHODS, KIT, AND DOSAGE FORMS FOR TREATING BACTERIAL INFECTION” (Motif BioSciences Inc., priority 2016, published 2020)
Where “and” joins values, the source holds several entries; their conditions need not be identical. Equal entries are not always repeated.

Key:
[1] = tested on: Staphylococcus aureus ATCC 25923; test: MIC determination; assay type: cell-based; conditions: Staphylococcus aureus, ATCC25923; S. aureus 25923; 18 hours at 37° C.; read-out: Minimum inhibitory concentrations (MIC)
In short: (§1)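 K. pneumoniae and S. aureus grew in cation-adjusted Mueller-Hinton broth in ambient air. H. influenzae used Haemophilus test medium (MHB, yeast extract, NAD, hematin) and M. catarrhalis used Brain Heart Infusion, both under 5% CO2.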

[2] = tested on: Streptococcus pneumoniae ATCC 49619; test: MIC determination; assay type: cell-based; conditions: Streptococcus pneumoniae, ATCC49619; S. pneumoniae 49619; 18 hours at 37° C., 5% CO2; read-out: Minimum inhibitory concentrations (MIC)
[3] = tested on: Haemophilus influenzae ATCC 49766; test: MIC determination; assay type: cell-based; conditions: Haemophilus influenzae, ATCC49766; H. Influenza 49766; 18 hours at 37° C., 5% CO2; read-out: Minimum inhibitory concentrations (MIC)
In short: as §1

[4] = tested on: Moraxella catarrhalis RA 21; test: MIC determination; assay type: cell-based; conditions: Moraxella catarrhalis, RA21; M. catarrhalis RA 21; 18 hours at 37° C., 5% CO2; read-out: Minimum inhibitory concentrations (MIC)
In short: as §1

[5] = tested on: Klebsiella pneumoniae ATCC 33495; test: MIC determination; assay type: cell-based; conditions: Klebsiella pneumoniae, ATCC33495; K. pneumonia 33495; 18 hours at 37° C.; read-out: Minimum inhibitory concentrations (MIC)
In short: as §1

S. aureus 101 = test: MIC determination; assay type: cell-based, Staphylococcus aureus; conditions: Staphylococcus aureus, 101, 18 h; read-out: Minimum inhibitory concentrations (MIC)
In short: as §1

Pneumocystis jirovecii [6] = test: in vitro anti-Pneumocystis susceptibility, broth microdilution in axenic culture; conditions: 4 days
Experimental: Iclaprim was synthesized at Arpida Ltd. (Münchenstein, Switzerland). TMP and SMX were obtained from Sigma, Spain. […] TMP and SMX solutions were mixed appropriately to obtain a final 1:5-combination. For evaluating the in vitro anti-Pneumocystis activity, the drug stock solutions were diluted in Dulbecco's Modified Eagle's Medium (DMEM, Bio-Whittaker) supplemented with 10% heat-inactivated fetal calf serum (FCS, GIBCO-BRL) to produce the required drug concentrations. […] Compound solutions were prepared just before use.
Corticosteroid-treated conventional laboratory rats were used as an animal model to obtain P. jirovecii organisms. Ten-week-old female Wistar rats (Harlan, France) were immunosuppressed for 3 weeks with dexamethasone (Fortecortin®, Merck) administered in the drinking water (2 mg/liter). Rats were then inoculated with 20×10^6 of cryopreserved parasites using a non-surgical endotracheal method. Dexamethasone treatment was maintained until the end of the experiment. Six to eight weeks' post-inoculation (p.i.) rats were highly infected, without secondary fungal or bacterial infection. Animals were allowed sterile standard food (UAR, France) and water ad libitum.
Six to eight weeks following inoculation, rats were sacrificed and parasite extraction was performed. Briefly, parasites were extracted in Dulbecco's Modified Eagle's Medium (DMEM; Bio-Whittaker) by agitation of lung pieces with a magnetic stirrer. The resulting homogenate was poured successively through gauze, 250 and 63 micron stainless steels filters. After centrifugation, the pellet was resuspended in a hemolytic buffered solution. […] Blood and Sabouraud dextrose agar (Difco) media were inoculated with purified parasites to check for the presence of eventual contaminating pathogens.
In vitro pharmacodynamic properties were determined using the Hill equation (Emax sigmoid model; see below).
In vitro susceptibility studies were performed using the broth microdilution technique. […] All the experiments were carried out in 24-well plates with a final volume of 2 ml of DMEM supplemented with 10% FCS containing a final inoculum of 0.5×10^6 organisms per ml. Plates were then incubated for 4 days in an atmosphere of 5% C0^2 at 37° C. One free-drug control was included in each assay. Parasite quantitation was performed on homogenate smears as described above. All susceptibility assays were set up in triplicate.
Analysis of results. […] Once all the differences between drug-treated and untreated wells were calculated, the concentration-effect relationship was established by using the Hill equation:
The parameters of this pharmacodynamic model were calculated by nonlinear least-squares regression techniques using a commercial software (Sigma Plot).

Pneumocystis jirovecii [7] = test: in vivo Pneumocystis pneumonia model, corticosteroid-treated rats; conditions: once a day for 10 days; for Mean % + SD (inhibition of cysts, TBO) / Mean % + SD (inhibition of total parasites, Giemsa): group mean; for Total cysts (TBO) / Total parasites (Giemsa): rat lung; for Total cysts (TBO) / Total parasites (Giemsa) / % of inhibition vs Control (total parasites, Giemsa) / % of inhibition vs control (cysts, TBO): single rat
Experimental: Compound solutions were prepared just before use.
The drugs were given once a day for 10 consecutive days. The final concentration of DMSO in diluted drug solutions was between 1.5 and 15%. Control animals were dosed with sterile water with 15% of DMSO. At the end of the experiment, therapeutic efficacy was assessed by counting P. jirovecii in lung homogenates and comparing the counts with those of the untreated controls. Twenty-four hours after the end of the treatment, animals were sacrificed and the lung homogenized in a Stomacher-400 blender as previously described (European Concerted Action on Pneumocystis Research. Parasitology Today 12: 245-9, 1996, the entire disclosure of which is herein incorporated by reference). Parasite quantitation was performed on air-dried smears stained with toluidine blue 0 (cystic forms) or RAL-555 stains (vegetative, precystic and cystic forms).

S. pneumoniae 1/1 = test: MIC determination; assay type: cell-based, Streptococcus pneumoniae; conditions: Streptococcus pneumoniae; S. pneumoniae 1/1; 18 hours at 37° C., 5% CO2; read-out: Minimum inhibitory concentrations (MIC)
[8] = tested on: Staphylococcus aureus AH 1246; test: mouse subcutaneous abscess model; assay type: in vivo; conditions: mice; 40 mg/Kg (alone); PO @ 8, 24, 32, 48, 56 hours post infection
Experimental: Wild type S. aureus ATCC 25923 and its TK-deficient mutant AH 1246 were supplied by Arpida AG, Reinach, Switzerland.
S. aureus strains were grown on TSA plates at 37° C. in 5% CO2. The bacteria concentration was adjusted by re-suspending a portion of the overnight growth of the plate in saline and adjusting a 1:10 dilution of the suspension to achieve an OD625 of 0.1. The adjusted suspension was diluted 1:2 in prepared Cytodex beads (1 gram/50 mL PBS) to a final concentration of 5.0×10^5 CFU/mL. Bacterial enumeration was performed to determine actual concentration of the bacterial inoculum.
CD-1 female mice (weighing 18 to 22 grams) from Charles River Laboratories (Wilmington, Mass.) were acclimated for 5 days prior to start of study. All studies were performed under approved IACUC protocols and conform to OLAW standards. Animals had free access to food and water throughout the study. Animals were provided enrichment and housed 5 per cage.
Mice were injected SC with 0.2 mL of the bacterial-Cytodex inoculum. […] The mice were then euthanized and the abscesses aseptically removed, homogenized, serially diluted and plated for bacterial enumeration.

[9] = in vivo; cited from earlier work
[10] = 5 mg/kg/d oral, listed as AR-100, 5 mg/kg/day
[11] = 25 mg/kg/d oral, listed as AR-100, 25 mg/kg/day
[12] = 50 mg/kg/d oral, listed as AR-100, 50 mg/kg/day

Molecule COc1cc(Cc2cnc(N)nc2N)c2c(c1OC)OC(C1CC1)C=C2 (racemic) [Iclaprim, 5-[(2RS)-2-cyclopropyl-7,8-dimethoxy-2Hchromen-5-ylmethyl] pyrimidine-2,4-diamine] has an MIC [1] of 0.063 µg/mL, an MIC [2] of 0.125 µg/mL and an MIC [3] of 0.25 µg/mL. For the same molecule, the MIC [4] was 2 µg/mL, the MIC [5] was 8 µg/mL and the MIC (S. aureus 101) was 1 µg/mL. The “% inhibition vs control” value (Pneumocystis jirovecii [6]; Iclaprim 5 μg/ml) was 5.8 ± 2.6%, the “Log (total parasites)” value (Pneumocystis jirovecii [6]; Iclaprim 5 μg/ml) was 6.2 and the “Total parasites (× 10^6)” value (Pneumocystis jirovecii [6]; Iclaprim 5 μg/ml) was 1.5 ± 0.04 × 10^6. For the same molecule, the “% inhibition vs control” value (Pneumocystis jirovecii [6]; Iclaprim 11 μg/ml) was 19.3 ± 7.4%, the “Log (total parasites)” value (Pneumocystis jirovecii [6]; Iclaprim 11 μg/ml) was 6.1 and the “Total parasites (× 10^6)” value (Pneumocystis jirovecii [6]; Iclaprim 11 μg/ml) was 1.3 ± 0.1 × 10^6. For the same molecule, the “% inhibition vs control” value (Pneumocystis jirovecii [6]; Iclaprim 18 μg/ml) was 44.0 ± 6.3%, the “Log (total parasites)” value (Pneumocystis jirovecii [6]; Iclaprim 18 μg/ml) was 5.9 and the “Total parasites (× 10^6)” value (Pneumocystis jirovecii [6]; Iclaprim 18 μg/ml) was 0.9 ± 0.1 × 10^6. The “% inhibition vs control” value (Pneumocystis jirovecii [6]; Iclaprim 24 μg/ml) was 58.1 ± 3.1%, the “Log (total parasites)” value (Pneumocystis jirovecii [6]; Iclaprim 24 μg/ml) was 5.8 and the “Total parasites (× 10^6)” value (Pneumocystis jirovecii [6]; Iclaprim 24 μg/ml) was 0.7 ± 0.05 × 10^6. For the same molecule, the “% inhibition vs control” value (Pneumocystis jirovecii [6]; Iclaprim 31 μg/ml) was 79.3 ± 4.8%, the “Log (total parasites)” value (Pneumocystis jirovecii [6]; Iclaprim 31 μg/ml) was 5.5 and the “Total parasites (× 10^6)” value (Pneumocystis jirovecii [6]; Iclaprim 31 μg/ml) was 0.3 ± 0.08 × 10^6. For the same molecule, the “% inhibition vs control” value (Pneumocystis jirovecii [6]; Iclaprim 37 μg/ml) was 92.3 ± 1.9%, the “Log (total parasites)” value (Pneumocystis jirovecii [6]; Iclaprim 37 μg/ml) was 5.1 and the “Total parasites (× 10^6)” value (Pneumocystis jirovecii [6]; Iclaprim 37 μg/ml) was 0.1 ± 0.03 × 10^6. The “% inhibition vs control” value (Pneumocystis jirovecii [6]; Iclaprim 44 μg/ml) was 98.3 ± 0.72%, the “Log (total parasites)” value (Pneumocystis jirovecii [6]; Iclaprim 44 μg/ml) was 4.4 and the “Total parasites (× 10^6)” value (Pneumocystis jirovecii [6]; Iclaprim 44 μg/ml) was 0.03 ± 0.01 × 10^6. The “% inhibition vs control” value (Pneumocystis jirovecii [6]; Iclaprim 50 μg/ml) was 99.7 ± 0.04%, the “Log (total parasites)” value (Pneumocystis jirovecii [6]; Iclaprim 50 μg/ml) was 3.7 and the “Total parasites (× 10^6)” value (Pneumocystis jirovecii [6]; Iclaprim 50 μg/ml) was 0.01 ± 0.001 × 10^6. The “% inhibition vs control” value (Pneumocystis jirovecii [6]; Iclaprim 80 μg/ml) was 99.8 ± 0.12%, the “Log (total parasites)” value (Pneumocystis jirovecii [6]; Iclaprim 80 μg/ml) was 3.4 and the “Total parasites (× 10^6)” value (Pneumocystis jirovecii [6]; Iclaprim 80 μg/ml) was 0.003 ± 0.002 × 10^6. The “% inhibition vs control” value (Pneumocystis jirovecii [6]; Iclaprim 100 μg/ml) was 99.9 ± 0.07%, the “Log (total parasites)” value (Pneumocystis jirovecii [6]; Iclaprim 100 μg/ml) was 3.3 and the “Total parasites (× 10^6)” value (Pneumocystis jirovecii [6]; Iclaprim 100 μg/ml) was 0.002 ± 0.001 × 10^6. The “Mean % + SD (inhibition of cysts, TBO)” value (Pneumocystis jirovecii [7]; 5 mg/kg/d oral) was 69.4 ± 8.4%, the “Mean % + SD (inhibition of total parasites, Giemsa)” value (Pneumocystis jirovecii [7]; 5 mg/kg/d oral) was 66.9 ± 7.8% and the “Mean % + SD (inhibition of cysts, TBO)” value (Pneumocystis jirovecii [7]; 25 mg/kg/d oral) was 72.0 ± 30.0%. The “Mean % + SD (inhibition of total parasites, Giemsa)” value (Pneumocystis jirovecii [7]; 25 mg/kg/d oral) was 79.1 ± 20.9%, the “Mean % + SD (inhibition of cysts, TBO)” value (Pneumocystis jirovecii [7]; 50 mg/kg/d oral) was 71.7 ± 14.5% and the “Mean % + SD (inhibition of total parasites, Giemsa)” value (Pneumocystis jirovecii [7]; 50 mg/kg/d oral) was 76.5 ± 13.3%. The “Total cysts (TBO)” value (Pneumocystis jirovecii [7]; [10]) was 3.85.10^+7 and 2.60.10^+7 and 4.61.10^+7, the “Total parasites (Giemsa)” value (Pneumocystis jirovecii [7]; [10]) was 9.13.10^+8 and 6.56.10^+8 and the “Total cysts (TBO)” value (Pneumocystis jirovecii [7]; [11]) was 1.72.10^+7 and 8.94.10^+6 and 9.11.10^+7. For the same molecule, the “Total parasites (Giemsa)” value (Pneumocystis jirovecii [7]; [11]) was 3.94.10^+8 and 3.41.10^+7 and 9.38.10^+8, the “Total cysts (TBO)” value (Pneumocystis jirovecii [7]; [12]) was 5.17.10^+7 and 3.38.10^+7 and 5.23.10^+7 and the “Total parasites (Giemsa)” value (Pneumocystis jirovecii [7]; [12]) was 5.68.10^+8 and 7.71.10^+8 and 2.00.10^+8. The “% of inhibition vs Control (total parasites, Giemsa)” value (Pneumocystis jirovecii [7]; [10]) was 58.1% and 69.9% and 72.8%, the “% of inhibition vs control (cysts, TBO)” value (Pneumocystis jirovecii [7]; [10]) was 68.0% and 78.4% and 61.7% and the “% of inhibition vs Control (total parasites, Giemsa)” value (Pneumocystis jirovecii [7]; [11]) was 81.9% and 98.4% and 90.8%. For the same molecule, the “% of inhibition vs control (cysts, TBO)” value (Pneumocystis jirovecii [7]; [11]) was 85.7% and 92.6% and 37.7%, the “% of inhibition vs Control (total parasites, Giemsa)” value (Pneumocystis jirovecii [7]; [12]) was 74.0% and 64.7% and 90.8% and the “% of inhibition vs control (cysts, TBO)” value (Pneumocystis jirovecii [7]; [12]) was 57.1% and 71.9% and 86.1%. The MIC (S. pneumoniae 1/1) was 1 µg/mL, the “Change in average log10 CFU/gr of Abscess from Controls” value [8] was −0.79 log10 CFU/gr and the “t½ (plasma half-life)” value [9] was “about 2.9 hours”.
